Assay results published in PMC10080691, “Enzyme-Responsive Double-Locked Photodynamic Molecular Beacon for Targeted Photodynamic Anticancer Therapy” (Journal of the American Chemical Society, 2023).

System: A549 human lung carcinoma cells
Assay: Intracellular fluorescence by flow cytometry
Type: cell-based
Method: The cellular uptake of 1 was studied using a range of cell lines with different expression levels of MMP-2, namely the MMP-2-overexpressed A549 human lung carcinoma cells[73] and U-87 MG human glioblastoma cells,[74] as well as the low MMP-2-expressed HeLa human cervical carcinoma cells[75] and HEK-293 human embryonic kidney normal cells.[76] The cells were incubated with 1 (2 μM) in a serum-free medium for 1 h and then in the neat medium for a further 6 h to provide sufficient time for enzymatic cleavage. […] Similar results were obtained by flow cytometry (Figure 5b). The quantified fluorescence intensity for A549 cells was 3.8-fold that for HEK-293 cells. […] After subsequent cleavage of the remaining GFLG linker by the intrinsic cathepsin B inside the cells, the probe was activated favorably, leading to higher intracellular fluorescence intensity.
The cells were pretreated with SB-3CT (10 μM) and/or CA-074 Me (25 μM) or simply the neat medium for 2 h, followed by incubation with 1 (2 μM) for a further 1 h. […] The fluorescence images of the cells under all these conditions were captured using a confocal laser scanning microscope. […] For the cells with pretreatment with both inhibitors, fluorescence due to 1 could hardly be seen. Similarly, for the cells being incubated with 14, the intracellular fluorescence was negligible. […]
Confocal Fluorescence Microscopic Studies […]

## CCN(CC)c1ccc2nc3ccc(/N=N/c4ccc(N(C)CCCNC(=O)OC[C@@H]5[C@@H]6CCc7nnn(CC(=O)NCCCC[C@@H]8NC(=O)CNC(=O)[C@H](CCCCN)NC(=O)[C@H](CCCNC(=N)N)NC(=O)[C@H](C(C)C)NC(=O)CNC(=O)[C@H](CC(C)C)NC(=O)[C@@H]9CCCN9C(=O)[C@H](CCCCN)NC(=O)[C@@H](N)CSCc9cc(COc%10ccc(C%11=C%12C(C)=C(I)C(/C=C/c%13ccc(OCCOCCOCCOC)cc%13)=[N+]%12[B-](F)(F)n%12c(/C=C/c%13ccc(OCCOCCOCCOC)cc%13)c(I)c(C)c%12%11)cc%10)cc(c9)CSC[C@@H](C(N)=O)NC(=O)[C@H](CCCCN)NC(=O)[C@H](CCCCN)NC(=O)CNC(=O)[C@H](CC(C)C)NC(=O)[C@H](Cc9ccccc9)NC(=O)CNC(=O)[C@H](CCCCN)NC(=O)CNC8=O)c7CC[C@@H]65)cc4)cc3[n+](-c3ccccc3)c2c1 [compound 1]
2 μM, 1 h in serum-free medium, then 6 h in neat medium, three independent experiments
  intracellular fluorescence intensity, A549 relative to HEK-293 cells: 3.8 fold
A549, 2 μM 1 h + 6 h, SB-3CT (10 μM) and CA-074 Me (25 μM) 2 h pretreatment
  intracellular fluorescence intensity, untreated cells relative to cells pretreated with the two inhibitors: 5.6 fold
